Reference: US20230085307A1, “PYRIDAZINONE COMPOUND AND HERBICIDE” (NISSAN CHEMICAL CORPORATION, priority 2019, published 2023)

How the values were obtained:
late watergrass = assay: Test Example 2: herbicidal activity, application during weed generation under submerged conditions (Table 17, symbol A); type: in vivo, late watergrass (Echinochloa oryzicola); details: AAH 320 g/ha; application during weed generation, submerged conditions
In short: (§1)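 Effect on each weed is rated three weeks post-treatment, using the same scoring criteria as the preceding test. Plants grow from mixed-sown seed in flooded alluvial soil (4 cm water) at 25° C. to 30° C., and are treated at one to two leaves with diluted emulsion dropped onto the water.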

lambsquarters = assay: Test Example 4: herbicidal effect by soil treatment (Table 19, symbol O); type: in vivo, lambsquarters (Chenopodium album); details: amount of applied herbicide 320 g/ha
In short: (§2)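 Soil-surface application: an emulsion agent diluted with water to the predetermined dose is sprayed uniformly over seeds lying under roughly 1.5 cm of sterilized diluvial soil. Boxes stay in a greenhouse at 25° C. to 30° C. Three weeks later, each species is graded on previously defined criteria.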

chickweed [1] = assay: Test Example 5: herbicidal effect by foliage application, plastic box (Table 20, symbol P); type: in vivo, common chickweed (Stellaria media); details: foliage application, 320 g/ha, three weeks after application
In short: (§3)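 Sow seeds spot-wise in sterilized diluvial soil; cover with ~1.5 cm soil. Grow 14 days in greenhouse, 25° C. to 30° C. Spray foliage with emulsion diluted to predetermined amount. Rate effect after 3 weeks.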

chickweed [2] = assay: Test Example 4: herbicidal effect by soil treatment (Table 19, symbol P); type: in vivo, common chickweed (Stellaria media); details: amount of applied herbicide 320 g/ha
In short: as §2

blackgrass [3] = assay: Test Example 4: herbicidal effect by soil treatment (Table 19, symbol J); type: in vivo, blackgrass (Alopecurus myosuroides); details: amount of applied herbicide 320 g/ha
In short: as §2

Italian ryegrass [4] = assay: Test Example 4: herbicidal effect by soil treatment (Table 19, symbol K); type: in vivo, Italian ryegrass (Lolium multiflorum); details: amount of applied herbicide 320 g/ha
In short: as §2

Italian ryegrass [5] = assay: Test Example 5: herbicidal effect by foliage application, plastic box (Table 20, symbol K); type: in vivo, Italian ryegrass (Lolium multiflorum); details: foliage application, 320 g/ha, three weeks after application
In short: as §3

green foxtail = assay: Test Example 4: herbicidal effect by soil treatment (Table 19, symbol G); type: in vivo, green foxtail (Setaria viridis); details: amount of applied herbicide 320 g/ha
In short: as §2

wild oat = assay: Test Example 4: herbicidal effect by soil treatment (Table 19, symbol I); type: in vivo, wild oat (Avena fatua); details: amount of applied herbicide 320 g/ha
In short: as §2

velvetleaf [6] = assay: Test Example 4: herbicidal effect by soil treatment (Table 19, symbol M); type: in vivo, velvetleaf (Abutilon theophrasti); details: amount of applied herbicide 320 g/ha
In short: as §2

blackgrass [7] = assay: Test Example 5: herbicidal effect by foliage application, plastic box (Table 20, symbol J); type: in vivo, blackgrass (Alopecurus myosuroides); details: foliage application, 320 g/ha, three weeks after application
In short: as §3

persian speedwell = assay: Test Example 5: herbicidal effect by foliage application, plastic box (Table 20, symbol R); type: in vivo, Persian speedwell (Veronica persica); details: foliage application, 320 g/ha, three weeks after application
In short: as §3

barnyard grass [8] = assay: Test Example 3: herbicidal effect by foliage application, Wagner pot (Table 18, symbol H); type: in vivo, barnyard grass (Echinochloa crus-galli); details: for herbicidal effect on barnyard grass (H): 320 g/ha
In short: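 Plants were sown in alluvial soil held under 0.1–0.5 cm standing water and grown 14 days in a greenhouse at 25–30 °C. An emulsifiable formulation, water-diluted to the set dose, was then sprayed onto the foliage, and effects were scored three weeks later using previously defined criteria.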

redroot pigweed = assay: Test Example 5: herbicidal effect by foliage application, plastic box (Table 20, symbol N); type: in vivo, redroot pigweed (Amaranthus retroflexus); details: foliage application, 320 g/ha, three weeks after application
In short: as §3

barnyard grass [9] = assay: Test Example 4: herbicidal effect by soil treatment (Table 19, symbol H); type: in vivo, barnyard grass (Echinochloa crus-galli); details: amount of applied herbicide 320 g/ha
In short: as §2

velvetleaf [10] = assay: Test Example 5: herbicidal effect by foliage application, plastic box (Table 20, symbol M); type: in vivo, velvetleaf (Abutilon theophrasti); details: foliage application, 320 g/ha, three weeks after application
In short: as §3

Japanese bulrush = assay: Test Example 2: herbicidal activity, application during weed generation under submerged conditions (Table 17, symbol B); type: in vivo, Japanese bulrush (Schoenoplectus juncoides); details: AAH 320 g/ha; application during weed generation, submerged conditions
In short: as §1

Structure (SMILES)	herbicidal effect rating, A: late watergrass (late watergrass)	O: lambsquarters, herbicidal effect grade (lambsquarters)	P: chickweed, herbicidal effect grade (chickweed [1])	P: chickweed, herbicidal effect grade (chickweed [2])	J: blackgrass, herbicidal effect grade (blackgrass [3])	K: Italian ryegrass, herbicidal effect grade (Italian ryegrass [4])	K: Italian ryegrass, herbicidal effect grade (Italian ryegrass [5])	G: green foxtail, herbicidal effect grade (green foxtail)	I: wild oat, herbicidal effect grade (wild oat)	M: velvetleaf, herbicidal effect grade (velvetleaf [6])	J: blackgrass, herbicidal effect grade (blackgrass [7])	R: persian speedwell, herbicidal effect grade (persian speedwell)	herbicidal effect on H: barnyard grass (barnyard grass [8]; amount of applied herbicide 320 g/ha)	N: redroot pigweed, herbicidal effect grade (redroot pigweed)	H: barnyard grass, herbicidal effect grade (barnyard grass [9])	M: velvetleaf, herbicidal effect grade (velvetleaf [10])	herbicidal effect rating, B: Japanese bulrush (Japanese bulrush)	herbicidal effect on barnyard grass (H) (barnyard grass [8])
COc1ccccc1-c1sc2cc(F)ccc2c1-c1c(OS(=O)(=O)N(C)C)c(C)nn(C)c1=O [3-028]	2 (Herbicidal rate of 20% or more and less than 40%)	0 (Herbicidal rate of 5% or less (almost no effect))	5 (Herbicidal rate of 90% or more (almost completely withered))	0 (Herbicidal rate of 5% or less (almost no effect))	0 (Herbicidal rate of 5% or less (almost no effect))	0 (Herbicidal rate of 5% or less (almost no effect))	4 (Herbicidal rate of 70% or more and less than 90%)	0 (Herbicidal rate of 5% or less (almost no effect))	0 (Herbicidal rate of 5% or less (almost no effect))	0 (Herbicidal rate of 5% or less (almost no effect))	4 (Herbicidal rate of 70% or more and less than 90%)	0 (Herbicidal rate of 5% or less (almost no effect))	4 (Herbicidal rate of 70% or more and less than 90%)	5 (Herbicidal rate of 90% or more (almost completely withered))	0 (Herbicidal rate of 5% or less (almost no effect))	4 (Herbicidal rate of 70% or more and less than 90%)	0 (Herbicidal rate of 5% or less (almost no effect))	
CCCC(=O)Oc1c(C)nn(C)c(=O)c1-c1c(-c2ccc(Cl)cc2)sc2cc(Cl)ccc12 [3-034]	3 (Herbicidal rate of 40% or more and less than 70%)	0 (Herbicidal rate of 5% or less (almost no effect))	5 (Herbicidal rate of 90% or more (almost completely withered))	3 (Herbicidal rate of 40% or more and less than 70%)	0 (Herbicidal rate of 5% or less (almost no effect))	1 (Herbicidal rate of 5% or more and less than 20%)	4 (Herbicidal rate of 70% or more and less than 90%)	0 (Herbicidal rate of 5% or less (almost no effect))	0 (Herbicidal rate of 5% or less (almost no effect))	3 (Herbicidal rate of 40% or more and less than 70%)	4 (Herbicidal rate of 70% or more and less than 90%)	5 (Herbicidal rate of 90% or more (almost completely withered))		4 (Herbicidal rate of 70% or more and less than 90%)	0 (Herbicidal rate of 5% or less (almost no effect))	4 (Herbicidal rate of 70% or more and less than 90%)	0 (Herbicidal rate of 5% or less (almost no effect))	5 (Herbicidal rate of 90% or more (almost completely withered))
CCOc1ccccc1-c1sc2cc(Cl)ccc2c1-c1c(O)c(C)nn(C)c1=O [3-039]	2 (Herbicidal rate of 20% or more and less than 40%)	3 (Herbicidal rate of 40% or more and less than 70%)	5 (Herbicidal rate of 90% or more (almost completely withered))	5 (Herbicidal rate of 90% or more (almost completely withered))	0 (Herbicidal rate of 5% or less (almost no effect))	0 (Herbicidal rate of 5% or less (almost no effect))	4 (Herbicidal rate of 70% or more and less than 90%)	4 (Herbicidal rate of 70% or more and less than 90%)	0 (Herbicidal rate of 5% or less (almost no effect))	3 (Herbicidal rate of 40% or more and less than 70%)	4 (Herbicidal rate of 70% or more and less than 90%)	5 (Herbicidal rate of 90% or more (almost completely withered))		4 (Herbicidal rate of 70% or more and less than 90%)	4 (Herbicidal rate of 70% or more and less than 90%)	5 (Herbicidal rate of 90% or more (almost completely withered))	2 (Herbicidal rate of 20% or more and less than 40%)	4 (Herbicidal rate of 70% or more and less than 90%)
CCCC(=O)Oc1c(C)nn(C)c(=O)c1-c1c(-c2ccccc2OCC)sc2cc(Cl)ccc12 [3-040]	2 (Herbicidal rate of 20% or more and less than 40%)	3 (Herbicidal rate of 40% or more and less than 70%)	5 (Herbicidal rate of 90% or more (almost completely withered))	4 (Herbicidal rate of 70% or more and less than 90%)	0 (Herbicidal rate of 5% or less (almost no effect))	0 (Herbicidal rate of 5% or less (almost no effect))	0 (Herbicidal rate of 5% or less (almost no effect))	2 (Herbicidal rate of 20% or more and less than 40%)	0 (Herbicidal rate of 5% or less (almost no effect))	3 (Herbicidal rate of 40% or more and less than 70%)	5 (Herbicidal rate of 90% or more (almost completely withered))	4 (Herbicidal rate of 70% or more and less than 90%)		5 (Herbicidal rate of 90% or more (almost completely withered))	0 (Herbicidal rate of 5% or less (almost no effect))	4 (Herbicidal rate of 70% or more and less than 90%)	2 (Herbicidal rate of 20% or more and less than 40%)	5 (Herbicidal rate of 90% or more (almost completely withered))
COc1cc(F)ccc1-c1sc2cc(Cl)ccc2c1-c1c(O)c(C)nn(C)c1=O [3-043]	3 (Herbicidal rate of 40% or more and less than 70%)	5 (Herbicidal rate of 90% or more (almost completely withered))	5 (Herbicidal rate of 90% or more (almost completely withered))	4 (Herbicidal rate of 70% or more and less than 90%)	3 (Herbicidal rate of 40% or more and less than 70%)	1 (Herbicidal rate of 5% or more and less than 20%)	2 (Herbicidal rate of 20% or more and less than 40%)	4 (Herbicidal rate of 70% or more and less than 90%)	0 (Herbicidal rate of 5% or less (almost no effect))	3 (Herbicidal rate of 40% or more and less than 70%)	5 (Herbicidal rate of 90% or more (almost completely withered))	5 (Herbicidal rate of 90% or more (almost completely withered))		2 (Herbicidal rate of 20% or more and less than 40%)	4 (Herbicidal rate of 70% or more and less than 90%)	5 (Herbicidal rate of 90% or more (almost completely withered))	0 (Herbicidal rate of 5% or less (almost no effect))	5 (Herbicidal rate of 90% or more (almost completely withered))
